pIC50: −log10 of the molar value.
Legend:
H358 (KRAS G12C) = test: Tumor cell proliferation inhibition assay (CellTiter-Glo), H358; assay type: cell-based, Human; conditions: 10% fetal bovine serum
Description: (§1) The H358, H23 or MIA-Paca2 cells were digested, centrifuged and resuspended, and the cell density was measured with a Scepter automatic cell counter. Cells were diluted to a solution containing 44,000 cells per milliliter, then added to a 96-well culture plate at 90 μL per well. The 96-well plate was placed in a 5% CO2 incubator at 37° C., and after the cells were cultured for 24 hours, different concentrations of the compounds to be tested were added. Cells were incubated with compounds in the presence of 10% fetal bovine serum for 72 hours. The inhibition of cell growth was assessed by measuring ATP levels by using the CellTiter-Glo Luminescent Cell Viability Assay Kit (details in manufacturer's instructions). In brief, 30 μL of CellTiter-Glo reagent was added to each well and the plate was shaken for 10 minutes to induce cell lysis, then the fluorescent signal was detected and recorded with a Fluoroskan Ascent FL (Thermo). Maximum signal values were obtained from cells treated with DMSO for 72 hours. Minimum signal values were obtained with medium only (zero cell number). Inhibition rate %=(maximum signal value-compound signal value)/(maximum signal value-minimum signal value)×100%. Data were processed by using Graphpad prism5 software. IC50 values were calculated using a sigmoidal dose-response curve.

MIA-Paca2 (KRAS G12C) = test: Tumor cell proliferation inhibition assay (CellTiter-Glo), MIA-Paca2; assay type: cell-based, Human; conditions: 10% fetal bovine serum
Description: as §1

[1] = Pharmacokinetic (PK) experiment in rats by gavage; assay type: in vivo; conditions: rat, plasma, po, male SD rats, 20 mg/kg; for AUC(0-t): read-out: AUC0-24
Description: Male SD rats, weighing 180-250 g, were fasted overnight before the test and stomach administrated with the test compound at 20 mg/kg. 15 minutes, 30 minutes, and 1, 2, 4, 6, 8, and 24 hours after administration, blood was taken from the end of the tail of the fracture, about 0.3 mL per time point, then placed in a centrifuge tube containing K2-EDTA, and centrifuged (2000 g, 10 min, at 4° C.). Plasma was collected and stored in an ultra-low temperature freezer at −80° C. 50 μL of plasma samples were vortexed with 135 μL of acetonitrile (containing 1 μg/mL internal standard) for protein precipitation and centrifuged, and the supernatant was collected for LC-MS/MS analysis.
After the rats oral administrated with the Pyridopyrimidinone compounds provided by the present disclosure, the absorption is good, and the blood exposure is relatively high. […] Cmax refers to the maximum plasma concentration, T1/2 is the half-life, AUC0-24 refers to the area under the 0-24 hour time-concentration curve, and AUC0-inf refers to the area under the 0-Inf time-concentration curve.

SMILES	pIC50 (H358 (KRAS G12C); Homo sapiens, NCI-H358, 72 h)	pIC50 (MIA-Paca2 (KRAS G12C); Homo sapiens, MIA PaCa-2, 72 h)	other results
C=CC(=O)N1CCN(c2nc(=O)n(-c3c(C)ccnc3C(C)C)c3nc(-c4c(F)ccc5ccoc45)c(F)cc23)C[C@@H]1CC#N (atropisomer, axis not shown; (M)) [Compound 100-1, 2-((2S)-1-acryloyl-4-(6-fluoro-7-(6-fluorobenzofuran-7-yl)-1(M)-(2-isopropyl-4-methylpyridin-3-yl)-2-oxo-1,2-dihydropyrido[2,3-d]pyrimidin-4-yl)piperazin-2-yl)acetonitrile]	6.30 to 7.00		
C=CC(=O)N1CCN(c2nc(=O)n(-c3c(C)ccnc3C(C)C)c3nc(-c4c(F)ccc5ccoc45)c(Cl)cc23)C[C@@H]1CC#N (atropisomer, axis not shown; (M)) [Compound 101-1, 2-((2S)-1-acryloyl-4-(6-chloro-7-(6-fluorobenzofuran-7-yl)-1(M)-(2-isopropyl-4-methylpyridin-3-yl)-2-oxo-1,2-dihydropyrido[2,3-d]pyrimidin-4-yl)piperazin-2-yl)acetonitrile]	7.30 to 8.00		
C=CC(=O)N1C[C@H](C)N(c2nc(=O)n(-c3c(C)ccnc3C(C)C)c3nc(-c4c(F)ccc5ccoc45)c(F)cc23)C[C@H]1C (atropisomer, axis not shown; (P)) [Compound 89-2, 4-((2S,5R)-4-acryloyl-2,5-dimethylpiperazin-1-yl)-6-fluoro-7-(6-fluorobenzofuran-7-yl)-1(P)-(2-isopropyl-4-methylpyridin-3-yl)pyrido[2,3-d]pyrimidin-2(1H)-one]			pIC50 (H358 (KRAS G12C); 72 hours): 7.96; pIC50 (MIA-Paca2 (KRAS G12C); 72 hours): < 6.30
C=CC(=O)N1CCN(c2nc(=O)n(-c3c(C)ccnc3C(C)C)c3nc(-c4c(F)ccc5c4OCO5)c(F)cc23)[C@@H](C)C1 [Compound 69, 4-((S)-4-acryloyl-2-methylpiperazin-1-yl)-6-fluoro-7-(5-fluorobenzo[d][1,3]dioxol-4-yl)-1-(2-isopropyl-4-methylpyridin-3-yl)pyrido[2,3-d]pyrimidin-2(1H)-one]	7.30 to 8.00	7.00 to 7.30	AUC(0-inf) [1]: 9930 ng·h/mL; Cmax [1]: 4390 ng/mL; Tmax [1]: 0.83 h; half-life [1]: 5.38 h; AUC(0-t) [1]: 9920 ng·h/mL
C=CC(=O)N1CCN(c2nc(=O)n(-c3c(C)ccnc3C(C)C)c3nc(-c4c(F)ccc5c4OCCO5)c(F)cc23)[C@@H](C)C1 [Compound 72, 4-((S)-4-acryloyl-2-methylpiperazin-1-yl)-6-fluoro-7-(6-fluoro-2,3-dihydrobenzo[b][1,4]dioxin-5-yl)-1-(2-isopropyl-4-methylpyridin-3-yl)pyrido[2,3-d]pyrimidin-2(1H)-one]	7.30 to 8.00	7.30 to 8.00	
C=CC(=O)N1CCN(c2nc(=O)n(-c3c(C)ccnc3C(C)C)c3nc(-c4cccc5cc[nH]c45)c(F)cc23)[C@@H](C)C1 [Compound 82, (S)-4-(4-acryloyl-2-methylpiperazin-1-yl)-6-fluoro-7-(1H-indol-7-yl)-1-(2-isopropyl-4-methylpyridin-3-yl)pyrido[2,3-d]pyrimidin-2(1H)-one]	9.00	< 6.30	
C=CC(=O)N1CCN(c2nc(=O)n(-c3c(C)ccnc3C(C)C)c3nc(-c4c(F)ccc5c4OCCO5)c(Cl)cc23)[C@@H](C)C1 [Compound 98, 4-((S)-4-acryloyl-2-methylpiperazin-1-yl)-6-chloro-7-(6-fluoro-2,3-dihydrobenzo[b][1,4]dioxin-5-yl)-1-(2-isopropyl-4-methylpyridin-3-yl)pyrido[2,3-d]pyrimidin-2(1H)-one]	> 8.00	7.30 to 8.00	
C=CC(=O)N1CCN(c2nc(=O)n(-c3c(C)ccnc3C(C)C)c3nc(-c4c(F)cc(F)c5ccoc45)c(Cl)cc23)[C@@H](C)C1 [Compound 102, 4-((S)-4-acryloyl-2-methylpiperazin-1-yl)-6-chloro-7-(4,6-difluorobenzofuran-7-yl)-1-(2-isopropyl-4-methylpyridin-3-yl)pyrido[2,3-d]pyrimidin-2(1H)-one]	> 8.00	7.30 to 8.00	AUC(0-inf) [1]: 14200 ng·h/mL; Cmax [1]: 3720 ng/mL; Tmax [1]: 1 h; half-life [1]: 2.85 h; AUC(0-t) [1]: 14200 ng·h/mL
C=CC(=O)N1CCN(c2nc(=O)n(-c3c(C)ccnc3C(C)C)c3nc(-c4c(Cl)ccc5ccoc45)c(Cl)cc23)[C@@H](C)C1 [Compound 105, 4-((S)-4-acryloyl-2-methylpiperazin-1-yl)-6-chloro-7-(6-chlorobenzofuran-7-yl)-1-(2-isopropyl-4-methylpyridin-3-yl)pyrido[2,3-d]pyrimidin-2(1H)-one]	> 8.00	7.30 to 8.00	
C=CC(=O)N1CCN(c2nc(=O)n(-c3c(C)cccc3C(C)C)c3nc(-c4c(F)ccc5ccoc45)c(F)cc23)[C@@H](C)C1 [Compound 106, 4-((S)-4-acryloyl-2-methylpiperazin-1-yl)-6-fluoro-7-(6-fluorobenzofuran-7-yl)-1-(2-isopropyl-6-methylphenyl)pyrido[2,3-d]pyrimidin-2(1H)-one]	6.30 to 7.00	6.30 to 7.00	
C=CC(=O)N1CCN(c2nc(=O)n(-c3c(C)ccnc3C(C)C)c3nc(-c4cccc5ccoc45)c(F)cc23)[C@@H](C)C1 [Compound 107, (S)-4-(4-acryloyl-2-methylpiperazin-1-yl)-7-(benzofuran-7-yl)-6-fluoro-1-(2-isopropyl-4-methylpyridin-3-yl)pyrido[2,3-d]pyrimidin-2(1H)-one]	6.30 to 7.00	< 6.30	
C=CC(=O)N1CCN(c2nc(=O)n(-c3c(C)ccnc3C(C)C)c3nc(-c4c(F)c(O)cc5ccoc45)c(Cl)cc23)[C@@H](C)C1 [Compound 110, 4-((S)-4-acryloyl-2-methylpiperazin-1-yl)-6-chloro-7-(6-fluoro-5-hydroxybenzofuran-7-yl)-1-(2-isopropyl-4-methylpyridin-3-yl)pyrido[2,3-d]pyrimidin-2(1H)-one]	7.30 to 8.00		melting point: 92 to 104 °C
C=CC(=O)N1CCN(c2nc(=O)n(-c3c(C)ccnc3C(C)C)c3nc(-c4c(F)c(OC)cc5ccoc45)c(Cl)cc23)[C@@H](C)C1 [Compound 111, 4-((S)-4-acryloyl-2-methylpiperazin-1-yl)-6-chloro-7-(6-fluoro-5-methoxybenzofuran-7-yl)-1-(2-isopropyl-4-methylpyridin-3-yl)pyrido[2,3-d]pyrimidin-2(1H)-one]	7.00 to 7.30		melting point: 101 to 113 °C
C=CC(=O)N1CCN(c2nc(=O)n(-c3c(C)ccnc3C(C)C)c3nc(-c4c(Cl)ccc5ccoc45)c(F)cc23)[C@@H](C)C1 [Compound 112, 4-((S)-4-acryloyl-2-methylpiperazin-1-yl)-7-(6-chlorobenzofuran-7-yl)-6-fluoro-1-(2-isopropyl-4-methylpyridin-3-yl)pyrido[2,3-d]pyrimidin-2(1H)-one]	7.30 to 8.00	7.00 to 7.30	
C=CC(=O)N1CCN(c2nc(=O)n(-c3ccccc3C(C)C)c3nc(-c4c(F)ccc5ccoc45)c(F)cc23)[C@@H](C)C1 [Compound 120, 4-((S)-4-acryloyl-2-methylpiperazin-1-yl)-6-fluoro-7-(6-fluorobenzofuran-7-yl)-1-(2-isopropylphenyl)pyrido[2,3-d]pyrimidin-2(1H)-one]	7.96	6.30 to 7.00	
C=CC(=O)N1CCN(c2nc(=O)n(-c3c(C(C)C)ccnc3C(C)C)c3nc(-c4c(F)ccc5ccoc45)c(F)cc23)[C@@H](C)C1 [Compound 121, 4-((S)-4-acryloyl-2-methylpiperazin-1-yl)-1-(2,4-diisopropylpyridin-3-yl)-6-fluoro-7-(6-fluorobenzofuran-7-yl)pyrido[2,3-d]pyrimidin-2(1H)-one]	7.30 to 8.00	7.30 to 8.00	
